Test results taken from US10082509B2 (priority 2013, dated 2018).
Entries after “also recorded” stand apart in the source; their conditions may differ. Read-outs that look alike come from different tables or passages of the source.

Tests used:
Legionella pneumophila = assay type: cell-based; conditions: for membrane labelling: FIG. 4; for labelling / metabolic incorporation: L. pneumophila strains, laboratory in vitro conditions, FIG. 7
E. coli K12 (MG1655) = assay type: cell-based, Escherichia coli
[1] = test system: P. aeruginosa (ATCC 9027); assay type: cell-based, Pseudomonas aeruginosa
[2] = test system: L. gormanii, L. maceachernii, L. micdadei, L. anisa, L. feeli, L. jordanis, L. tucsonensis and L. bozemanii; assay type: cell-based, Legionella spp.

Row | Compound | membrane labelling (Legionella pneumophila; L. pneumophila strain of serogroup 7) | labelling / metabolic incorporation (Legionella pneumophila) | membrane fluorescence / metabolic incorporation of the azido chemical reporter into LPS (Legionella pneumophila; four L. pneumophila serogroup 1 strains (incl. Philadelphia, Paris, Lens), 4 mM, 12 hours, 37° C., FIG. 3) | membrane labelling (Legionella pneumophila; four L. pneumophila strains of serogroups 3, 4, 5, 6) | labelling / metabolic incorporation (E. coli K12 (MG1655)) | labelling / metabolic incorporation [1] | membrane fluorescence / metabolic incorporation [2]
1 | CC(=O)N[C@H]1[C@H](O)[C@H](NC(C)=O)C(O)O[C@@H]1CN=[N+]=[N-] (some centres unmarked) | absence of labelling | efficiently labelled | highly distinctive fluorescence on their membrane | very bright membrane labelling | not incorporated; also recorded: failed to show any labelling | not incorporated; also recorded: failed to show any labelling | not incorporated; also recorded: no membrane fluorescence was observed
2 | CC(=O)NC1C(O)OC(CN=[N+]=[N-])[C@@H](NC(C)=O)[C@@H]1OC(C)=O (some centres unmarked) | – | not incorporated; also recorded: No labelling was observed | – | – | – | – | –
